Data reported in US20240024402A1, “COMPOSITION FOR IMPROVING INSULIN SENSITIVITY, CONTAINING GENTIANA TRIFLORAL PALLAS EXTRACT” (MTHERA PHARMA CO., LTD., priority 2020, published 2024).

Test system: ogt mRNA
Assay: ogt mRNA expression in HepG2 cells cultured with glucose, MGO and other sugars/aldehydes
Assay type: cell-based
Details: MGO, 24 hours
Experimental: The HepG2 cells were cultured in a cell culture medium containing glucose, fructose, methylglyoxal (MGO), glyoxal (GO), glyceraldehyde 3-phosphate (G3P), glyceraldehyde, and glycolaldehyde for 24 hours, respectively, and the expression level of ogt mRNA was measured and shown in FIG. 5.

CC(=O)C=O [MGO, methylglyoxal]
ogt mRNA expression compared to the control group: increased nearly twice
